Measured values reported in publication PMC6395809 (Scientific Reports, 2019).
Read-outs that look alike come from different tables or passages of the source.

Key:
[1] = biological target: T1, interaction between GST_SH3_p130Cas and MBP_shortPPII_ErbB2 recombinant proteins (Homo sapiens, UniProt P56945); assay: Competitive ELISA binding assay; format: biochemical; conditions: increasing concentration of compound
T1 construct: fragment of p130Cas protein (aminoacids 3–71); made in house; host or cells: Escherichia coli BL21
T1 sequence (P56945 3-71): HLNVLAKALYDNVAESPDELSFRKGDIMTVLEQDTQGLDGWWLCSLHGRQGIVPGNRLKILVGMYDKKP
Method: The day after, washing steps and saturation were performed using PBS and 3%BSA in PBS at room temperature. MBP-tagged ErbB2 purified recombinant proteins and MBP_ctrl (100 nM/well) were added in 100 μl/well of PBS for 2 h. After washing, anti-MBP mouse monoclonal antibody (0.25 μg/ml) was added for 2 h followed by peroxidase conjugated anti-mouse secondary antibody for 1 h.
For validation of inhibitory activity of selected compounds, ELISA binding assay was setup as reported above.

[2] = biological target: T2, binding between Fl-GST_SH3_p130Cas and MBP_shortPPII_ErbB2 (Homo sapiens, UniProt P56945); assay: Fluorescence experiment: MBP_shortPPII_ErbB2 added to Fl-GST_SH3_p130Cas/compound complex; conditions: compared to compound 2; MBP_shortPPII_ErbB2 0.1-0.75 μM
T2 construct: fragment of p130Cas protein (aminoacids 3–71); made in house; host or cells: Escherichia coli BL21
T2 sequence (P56945 3-71): T1 sequence (P56945 3-71)
Method: (§1) For fluorescence experiments, GST_SH3_p130Cas was firstly tagged with fluorescein (Fl-GST_SH3_p130Cas) using a methodology described in the literature[34] see Supporting Information). […] Fluorescence emission spectra of Fl-GST_SH3_p130Cas in the presence of 1 and 2 were obtained using the following concentrations: Fl-GST_SH3_p130Cas = 0.7 μM; 1 and 2 = 0–21 μM.
(§2) The variation in fluorescence emission at 518 nm of Fl-GST_SH3_p130Cas was monitored in all experiments.

[3] = test system: SKH100 Trastuzumab-resistant cells; assay: Combination with Trastuzumab in SKH100 Trastuzumab-resistant cells (MTT); format: cell-based, human; conditions: SKH100, Trastuzumab 100 μg/ml, three days
Method: (§3) Figure 6 Impact of 1 and 2 compounds on BT474 breast cancer cells. (A) To assess whether 1 and 2 could trigger cytotoxic effects on living cells, BT474 cells were treated with serial dilutions of 1 and 2 (or sterile DMSO). After three days, live cells were detected by standard MTT assay, highlighting the appearance of cytotoxic effects above 75 μM for compound 1. […] Cells were treated with different concentration of the 1 and 2 and proliferation was assayed three days later by performing MTT assay. Results were fitted with four-parameter dose-response curve using GraphPad Prism7 software. […] (E) SKBR3 cells were treated with Trastuzumab (25 μg/ml) either alone or in combination with compound 1 or 2 at the indicated doses. After three days, live cells were detected by standard MTT assay. Data are represented as mean ± SD. *p < 0.05, **p < 0.01. […] After three days, live cells were detected by standard MTT assay. […]
(§4) For proliferation assay BT474, SKBR3 and SKH100 cells were seeded in 8 replicates at 1000 cells/well concentration (25% confluency) in four different 96-well cell culture plates and then incubated with increasing concentration of 1 and 2 for 3 days. Changes in proliferation rate were detected by MTT assay (11465007001 Roche, Cell Proliferation Kit I) following manufacturer instruction. […]

[4] = test system: BT474 breast cancer cells; assay: Cell proliferation assay (MTT), BT474; format: cell-based; conditions: Homo sapiens, BT-474, 72 h, BT474, 3 days
Method: (§5) For proliferation assay BT474, SKBR3 and SKH100 cells were seeded in 8 replicates at 1000 cells/well concentration (25% confluency) in four different 96-well cell culture plates and then incubated with increasing concentration of 1 and 2 for 3 days. Changes in proliferation rate were detected by MTT assay (11465007001 Roche, Cell Proliferation Kit I) following manufacturer instruction. Sterile DMSO was used as control for non-specific solvent effect on proliferation.

[5] = test system: SKBR3 cells; assay: Combination with Trastuzumab in SKBR3 cells (MTT); format: cell-based, human; conditions: SKBR3, Trastuzumab 25 μg/ml, three days
Method: as §3, §4

[6] = biological target: T3, endogenous p130Cas/ErbB2 complex in BT474 cells (Homo sapiens, UniProt P56945); assay: Co-immunoprecipitation of p130Cas/ErbB2 in BT474 cells; format: cell-based; conditions: BT474 cells pre-treated for 24 hours
T3 construct: endogenous p130Cas/ErbB2 complex in BT474 cells; host or cells: BT474
T3 sequence (P56945 1-870): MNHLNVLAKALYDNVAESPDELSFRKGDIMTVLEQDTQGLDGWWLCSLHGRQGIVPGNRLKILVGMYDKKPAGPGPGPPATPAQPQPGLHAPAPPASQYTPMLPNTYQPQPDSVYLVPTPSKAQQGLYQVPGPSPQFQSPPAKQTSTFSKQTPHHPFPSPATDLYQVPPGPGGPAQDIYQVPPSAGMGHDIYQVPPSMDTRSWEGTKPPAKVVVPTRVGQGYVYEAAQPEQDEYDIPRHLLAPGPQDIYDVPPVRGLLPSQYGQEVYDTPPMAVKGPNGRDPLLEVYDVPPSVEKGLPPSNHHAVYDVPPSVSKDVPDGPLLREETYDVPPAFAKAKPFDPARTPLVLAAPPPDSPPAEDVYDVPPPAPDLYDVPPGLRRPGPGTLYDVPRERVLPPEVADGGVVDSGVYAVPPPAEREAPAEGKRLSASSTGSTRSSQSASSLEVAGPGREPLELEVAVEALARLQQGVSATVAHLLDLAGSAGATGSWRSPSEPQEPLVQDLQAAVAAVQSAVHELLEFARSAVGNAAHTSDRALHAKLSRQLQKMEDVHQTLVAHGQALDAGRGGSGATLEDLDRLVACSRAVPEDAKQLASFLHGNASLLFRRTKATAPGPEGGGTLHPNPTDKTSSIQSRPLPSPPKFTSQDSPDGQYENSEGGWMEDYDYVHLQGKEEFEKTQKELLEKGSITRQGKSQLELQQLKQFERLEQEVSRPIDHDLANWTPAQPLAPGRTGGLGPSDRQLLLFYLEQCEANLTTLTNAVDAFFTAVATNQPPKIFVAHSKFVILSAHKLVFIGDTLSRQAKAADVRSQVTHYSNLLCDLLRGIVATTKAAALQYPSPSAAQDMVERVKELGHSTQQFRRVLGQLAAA
Method: GAPDH expression was used as loading control. Data are represented as mean ± SD. **p < 0.01, ***p < 0.001.
To assess whether these compounds could interfere with p130Cas/ErbB2 association in a cellular context, ErbB2-positive BT474 breast cancer cells were pre-treated for 24 hours with 1 or 2 and subjected to co-immunoprecipitation experiments.

[7] = test system: ErbB2-negative HEK 293T cells; assay: Proliferation assay of ErbB2-negative HEK 293T cell line; format: cell-based, human; conditions: serial dilutions, three days, MTT
Method: Figure S5. Proliferation assay of ErbB2-negative HEK 293T cell line treated with inhibitory […]
To assess whether 1 and 2 could affect cell proliferation independently from p130Cas/ErbB2 inhibition, ErbB2 ErbB2-negative cell line, HEK 293T cells were treated with serial dilutions of 1 and 2 (or sterile DMSO). After three days, live cells were detected by standard MTT assay. […]
any effect even at high concentration.
(1 picture or pasted object on this page, not shown here)

[8] = biological target: T4, GST_SH3_p130Cas recombinant protein (SH3 domain of p130Cas) (Homo sapiens, UniProt P56945); assay: Fluorescence quenching of Fl-GST_SH3_p130Cas by compounds; format: binding
T4 construct: fragment of p130Cas protein (aminoacids 3–71); made in house; host or cells: Escherichia coli BL21
T4 sequence (P56945 3-71): T1 sequence (P56945 3-71)
Method: To experimentally validate the binding of compound 1 and 2 on GST_SH3_p130Cas recombinant protein, fluorescence quenching experiments were performed.
The fluorescence spectra of Fl-GST_SH3_p130Cas in the absence and in the presence of 1 and 2 at different concentrations are shown in Fig. 4C.
as §1, with “All fluorescence spectra were recorded with a Horiba Jobin Yvon Fluorolog3 TCSPC spectrofluorophotometer with 1.0 cm quartz cells For” for “For”
as §2
Fluorescence data analysis
The obtained spectroscopic data were analysed by a […] non linear least-squares fit procedures reported in Equation 2 2: […]
in which y is the binding derived by measuring fluorescence intensity, [Q] is the concentration of tested compound, Bmax is the maximum amount of protein/compound complex (Fl-GST_SH3_p130Cas/compound) formed at saturation and Kd is the equilibrium dissociation constant. […]

[9] = test system: SKBR3 breast cancer cells; assay: Cell proliferation assay (MTT), SKBR3; format: cell-based; conditions: Homo sapiens, SK-BR-3, 72 h, SKBR3, 3 days
Method: as §5

[10] = test system: BT474 cells; assay: Cytotoxicity assay (MTT); format: cell-based, human; conditions: BT474, three days, serial dilutions 250-0.12 μM
Method: For cytotoxicity assay BT474 cells were seeded at 5000 cells/well concentration (100% confluency) in a 96-well cell culture plate and incubated with serial dilutions of 1 and 2 compounds (from 250 μM to 0.12 μM). Cytotoxicity was evaluated after 3 days by MTT assay (11465007001 Roche, Cell Proliferation Kit I) following manufacturer instruction.

[11] = test system: ErbB2-positive breast cancer patients; conditions: cited from earlier work
[12] = biological target: T5, MBP_shortPPII_ErbB2 (human (by the printed accession …, UniProt P04626-1 1103-1194)); assay: other fluorescence titration; Fl-GST_SH3_p130Cas fixed at 3.0 μM, MBP_shortPPII_ErbB2 0.05–3.0 μM; emission at 518 nm; nonlinear least-squares fit; conditions: both partners purified
T5 construct: ErbB2 cytosolic portion, aminoacids 1103-1194, holds the polyproline type II motif V[RPQPPSP]R at 1145-1153 (isoform 1, P04626-1); the printed residue limits are kept; source: E. coli BL21, purified (Sepharose amylose column), dialyzed against PBS; not shown: MBP, N-terminal, kept

[13] = biological target: T5, MBP_shortPPII_ErbB2; assay: far-Western, overlay or dot blot; 1 μl of GST-tagged p130Cas proteins spotted on nitrocellulose; probed with MBP-tagged ErbB2 protein (1 μg/ml) in Interaction Buffer (50 mM Tris-HCl pH7.4, 150 mM NaCl, 1%Triton-X100) at 4 °C overnight; detected with anti-MBP; conditions: both partners purified
[14] = biological target: T6, MBP_longPPII_ErbB2 (human (by the printed accession …, UniProt P04626-1 1103-1255)); assay: co-IP; in vitro binding assay: GST-tagged p130Cas and MBP-tagged ErbB2 purified proteins mixed in Interaction Buffer with 1% BSA overnight at 4 °C; immunoprecipitated with anti-MBP and proteinA Sepharose; blot anti-GST; conditions: both partners purified
T6 construct: ErbB2 cytosolic portion, aminoacids 1103-1255 (isoform 1, P04626-1); the printed residue limits are kept; source: E. coli BL21, purified (Sepharose amylose column), dialyzed against PBS; not shown: MBP, N-terminal, kept

[15] = biological target: T7, MBP_R → D_shortPPII_ErbB2 (human (by the printed accession …, UniProt P04626-1 1103-1194, R to D at position 44 (position 1146 in the original ErbB2 sequence))); assay: ELISA; direct binding: 100 nM/well of GST_SH3_p130Cas (or mutants) coated in PBS overnight at 4 °C; MBP-tagged ErbB2 proteins (100 nM/well) in PBS for 2 h; detected with anti-MBP; normalized on GST_ctrl and MBP_ctrl; conditions: both partners purified
T7 construct: ErbB2 cytosolic portion, aminoacids 1103-1194, with R to D at position 44 of the fragment (1146 in ErbB2); motif V[DPQPPSP]R; source: E. coli BL21, purified (Sepharose amylose column); not shown: MBP, N-terminal, kept

## O=C(CNC(=O)NC1CC1)Nc1nnc(C23CC4CC(CC(C4)C2)C3)s1 [Compound 1]
[1]
  inhibition of GST_SH3_p130Cas/MBP_shortPPII_ErbB2 association: dose-dependent inhibition
[2]
  efficiency in preventing binding between Fl-GST_SH3_p130Cas and MBP_shortPPII_ErbB2: more efficient
[3]
  effect on sensitivity of resistant cells to Trastuzumab: partially restores
[4]
  EC50: 52.3 ± 6.38 µM
[5]
  effect on efficacy of Trastuzumab treatment: significantly enhances
[6]
  association of p130Cas to ErbB2 (co-immunoprecipitation): reduced the association
[7]
  effect on cell proliferation: no significant effect
[8]
  Kd: 200 nM

## NS(=O)(=O)N[C@H]1CCCc2ccccc21 [Compound 2]
[9]
  EC50: 274 ± 27.2 µM
[1]
  inhibition of GST_SH3_p130Cas/MBP_shortPPII_ErbB2 association: dose-dependent inhibition
[10]
  concentration at which cytotoxic effects appear: > 250 µM
[4]
  EC50: 240 ± 26 µM
[6]
  association of p130Cas to ErbB2 (co-immunoprecipitation): reduced the association
[7]
  effect on cell proliferation: did not have
[8]; fluorescence quenching of Fl-GST_SH3_p130Cas, emission at 518 nm, nonlinear least-squares fit, read-out: KD (equilibrium dissociation constant)
  Kd: 5000 nM

## N#CC(Cc1ccc(O)cc1)c1ccc(O)cc1 (stereo not drawn) [DPN, Diarylpropionitrile, reference compound]
[1]
  inhibition of GST_SH3_p130Cas/MBP_shortPPII_ErbB2 association: no modulation

## T-DM1
[11]
  patients in whom treatment failed to induce response: 57%

B1: Fl-GST_SH3_p130Cas (domain or fragment, UniProt P56945 3-71, looked up)
chain: T1 sequence (P56945 3-71)
modifications: also: fluorescein (site not given here)
notes: source: E. coli BL21, purified (Sepharose glutathione column), then tagged with fluorescein; not shown: GST, N-terminal, kept
[12]
  Kd: 40.7 nM

B2: GST_SH3_p130Cas (domain or fragment, UniProt P56945 3-71, looked up)
chain: T1 sequence (P56945 3-71)
notes: p130Cas SH3 domain, aminoacids 3-71, amplified from cDNA and cloned in pGEX-4T3; also called SH3 domain of p130Cas; source: E. coli BL21, purified (Sepharose glutathione column), dialyzed against PBS; not shown: GST, N-terminal, kept
[13]
  binding result: binds
[14]
  binding result: binds
[15]
  binding result: binds
